Structures can show the parent of a compound that is named as a salt.
How the values were obtained:
[1] = biological target: T1, Human vitronectin receptor (αvβ3) (Homo sapiens, UniProt P05106+P06756); assay: Vitronectin adhesion assay (solid phase receptor assay, competition with biotinylated vitronectin); assay type: binding; conditions: read-out: AvB3 IC50
T1 construct: Human vitronectin receptor (αvβ3) was purified from human placenta; from tissue; host or cells: human placenta
Procedure: VITRONECTIN ADHESION ASSAY
Assay buffer, OPD substrate tablets, and RIA grade BSA were obtained from Sigma (St. Louis, Mo.). Anti-biotin antibody was obtained from Calbiochem (La Jolla, Calif.). Linbro microtiter plates were obtained from Flow Labs (McLean, Va.). ADP reagent was obtained from Sigma (St. Louis, Mo.).
(§1) Solid Phase Receptor Assays
(§2) The purified human vitronectin receptor (αvβ3) was diluted from stock solutions to 1.0 μg/mL in Tris-buffered saline containing 1.0 mM Ca^++, Mg^++, and Mn^++, pH 7.4 (TBS^+++). The diluted receptor was immediately transferred to Linbro microtiter plates at 100 μL/well (100 ng receptor/well). The plates were sealed and incubated overnight at 4° C. to allow the receptor to bind to the wells. All remaining steps were at room temperature. The assay plates were emptied and 200 μL of 1% RIA grade BSA in TBS^+++(TBS^+++/BSA) were added to block exposed plastic surfaces. Following a 2 hour incubation, the assay plates were washed with TBS^+++ using a 96 well plate washer. Logarithmic serial dilution of the test compound and controls were made starting at a stock concentration of 2 mM and using 2 nM biotinylated vitronectin in TBS^+++/BSA as the diluent. This premixing of labeled ligand with test (or control) ligand, and subsequent transfer of 50 μL aliquots to the assay plate was carried out with a CETUS Propette robot; the final concentration of the labeled ligand was 1 nM and the highest concentration of test compound was 1.0×10^−4 M. The competition occurred for two hours after which all wells were washed with a plate washer as before. Affinity purified horseradish peroxidase labeled goat anti-biotin antibody was diluted 1:3000 in TBS^+++/BSA and 125 μL were added to each well. After 30 minutes, the plates were washed and incubated with OPD/H2O2 substrate in 100 mM/L Citrate buffer, pH 5.0. The plate was read with a microtiter plate reader at a wavelength of 450 nm and when the maximum-binding control wells reached an absorbance of about 1.0, the final A450 were recorded for analysis. The data were analyzed using a macro written for use with the EXCEL™ spreadsheet program. The mean, standard deviation, and % CV were determined for duplicate concentrations. The mean A450 values were normalized to the mean of four maximum-binding controls (no competitor added)(B-MAX). The normalized values were subjected to a four parameter curve fit algorithm [Rodbard et al., Int.

[2] = biological target: T2, Human fibrinogen receptor (αIIbβ3) (Homo sapiens, UniProt P05106+P08514); assay: Purified IIb/IIIa receptor assay (solid phase receptor assay, competition with biotinylated vitronectin); assay type: binding; conditions: read-out: IIb/IIIa IC50
T2 construct: Human fibrinogen receptor (αIIbβ3) was purified from outdated platelets; from tissue; host or cells: outdated human platelets
Procedure: PURIFIED IIb/IIIa RECEPTOR ASSAY
Human fibrinogen receptor (αIIbβ3) was purified from outdated platelets. […] Biotinylated human vitronectin was prepared by coupling NHS-biotin from Pierce Chemical Company (Rockford, Ill.) to purified vitronectin as previously described. […] Anti-biotin antibody was obtained from Calbiochem (La Jolla, Calif.). Linbro microtiter plates were obtained from Flow Labs (McLean, Va.). ADP reagent was obtained from Sigma (St. Louis, Mo.).
as §1
as §2, with “human fibrinogen” for “human vitronectin”, “receptor (αIIbβ3)” for “receptor (αvβ3)”, “in TBS^+++ (TBS^+++/BSA)” for “in TBS^+++(TBS^+++/BSA)”, “with […]” for “with OPD/H2O2”, “mM/L citrate” for “mM/L Citrate”, “fit algorithm, [Robard” for “fit algorithm [Rodbard”

Row | SMILES | IC50 [1] | IC50 [2]
1 | CC1(C)CN=C(Nc2cccc(C(=O)NCC(=O)NC(CC(=O)O)c3cc(Cl)cc(Cl)c3)c2)NC1 (racemic) [Example 367, (±)3,5-dichloro-β-[[2-[[[3-[(1,4,5,6-tetrahydro-5,5-dimethylpyrimidin-2-yl)amino]phenyl]carbonyl]amino]acetyl]amino]benzenepropanoic acid, trifluoroacetate salt] | 0.35 nM | 1540 nM
2 | Cc1cc(Br)cc(C(CC(=O)O)NC(=O)CNC(=O)c2cccc(NC(=N)N)c2)c1 (racemic) [Example 212, (±)β-[[2-[[[3-[(aminoiminomethyl)amino]phenyl]carbonyl]amino]acetyl]amino]-3-bromo-5-methylbenzenepropanoic acid, trifluoroacetate salt] | 1.93 nM | 306 nM
3 | CC(C)Oc1cc(OC(C)C)cc(C(CC(=O)O)NC(=O)CNC(=O)c2cccc(NC(=N)N)c2)c1 (stereo not drawn) [Example 275, β-[[2-[[[3-[(aminoiminomethyl)amino]phenyl]carbonyl]amino]acetyl]amino]-3,5-bis(1-methylethoxy)benzenepropanoic acid, trifluoroacetate salt] | 6.98 nM | 1200 nM
4 | NC(=S)Nc1cccc(C(=O)NCC(=O)NC(CC(=O)O)c2cc(Cl)cc(Cl)c2)c1 (racemic) [Example 206, (±)β-[[2-[[[3-[(aminothioxomethyl)amino]phenyl]carbonyl]amino]acetyl]amino]-3,5-dichlorobenzenepropanoic acid] | 78.5 nM | 22000 nM
5 | CCOC(=O)CC(NC(=O)CNC(=O)c1cccc(NC(=O)Nc2ccccc2)c1)c1ccc2c(c1)OCO2 (stereo not drawn) [Example 123, ethyl β-[[2-[[[3-3-[[(phenylamino)carbonyl]amino]phenyl]carbonyl]amino]acetyl]amino]-1,3-benzodioxole-5-propanoate] | 11800 nM | 85500 nM
6 | N=C(N)Nc1cc(NC(=O)C(F)(F)F)cc(C(=O)NCC(=O)NC(CC(=O)O)c2cc(Cl)cc(Cl)c2)c1 (stereo not drawn) [Example 292, β-[[2-[[[3-[(aminoiminomethyl)amino]-5-(trifluoroacetyl)amino]phenyl]carbonyl]amino]acetyl]amino]-3,5-dichlorobenzenepropanoic acid, trifluoroacetate salt] | 3.55 nM | 337 nM
7 | CCOC(=O)CC(NC(=O)CNC(=O)c1cccc(NC(=N)N)c1)c1cnc2ccccc2c1 (racemic) [Example 98, (±)ethyl β-[[2-[[[3-[(aminoiminomethyl)amino]phenyl]carbonyl]amino]acetyl]amino]-quinoline-3-propanoate, bis(trifluoroacetate)salt] | 146 nM | 500 nM
8 | Cc1ccsc1C(CC(=O)O)NC(=O)CNC(=O)c1cccc(NC(=N)N)c1 (stereo not drawn) [Example 244, β-[[2-[[[3-[(aminoiminomethyl)amino]phenyl]carbonyl]amino]acetyl]amino]-3-methylthiophene-2-propanoic acid, trifluoroacetate salt] | 17.6 nM | 4560 nM
9 | O=C(O)CC(NC(=O)CNC(=O)c1cccc(NC2=NCCCCC2)c1)c1cc(Cl)cc(Cl)c1 (racemic) [Example 189, (±)β-[[2-[[[3-[(3,4,5,6-tetrahydro-2H-azepin-7-yl)amino]phenyl]carbonyl]amino]acetyl]amino]-3,5-dichlorobenzenepropanoic acid, trifluoroacetate salt] | 4.03 nM | 1980 nM

Further compounds by falling IC50 [1], results first:

Row | IC50 [1] | IC50 [2] | SMILES
10 | 49.7 nM | 41.1 nM | O=C(O)CC(NC(=O)CNC(=O)c1cccc(Nc2ncc(-c3ccccc3)[nH]2)c1)c1cccnc1 (stereo not drawn) [Example 287, β-[[2-[[[3-[[5-phenyl-1H-imidazol-2-yl)amino]phenyl]carbonylamino]acetyl]amino]pyridine-3-propanoic acid, trifluoroacetate salt]
11 | 7.12 nM | 637 nM | N=C(N)Nc1ccc(O)c(C(=O)NCC(=O)NC(CC(=O)O)c2cc(Cl)cc(Cl)c2)c1 (stereo not drawn) [Example 279, β-[[2-[[[5-[(aminoiminomethyl)amino]-2-hydroxyphenyl]carbonyl]amino]acetyl]amino]-3,5-dichlorobenzenepropanoic acid, trifluoroacetate salt]
12 | 6.19 nM | 706 nM | N=C(N)Nc1cccc(C(=O)NCC(=O)NC(CC(=O)O)c2cc(Br)cc(Cl)c2O)c1 (stereo not drawn) [Example 265, β-[[2-[[[3-[(aminoiminomethyl)amino]phenyl]carbonyl]amino]acetyl]amino]-5-bromo-3-chloro-2-hydroxybenzenepropanoic acid, trifluoroacetate salt]
13 | 5.31 nM | 244 nM | CCOc1cc(OCC)cc(C(CC(=O)O)NC(=O)CNC(=O)c2cccc(NC(=N)N)c2)c1 (stereo not drawn) [Example 249, β-[[2-[[[3-[(aminoiminomethyl)amino]phenyl]carbonyl]amino]acetyl]amino]-3,5-diethoxybenzenepropanoic acid, trifluoroacetate salt]
14 | 2.29 nM | 253 nM | N=C(N)Nc1cccc(C(=O)NCC(=O)NC(CC(=O)O)c2cc(Br)cc(I)c2)c1 (racemic) [Example 219, (±)β-[[2-[[[3-[(aminoiminomethyl)amino]phenyl]carbonyl]amino]acetyl]amino]-3-bromo-5-iodobenzenepropanoic acid trifluoroacetate salt]
15 | 2.28 nM | 533 nM | N=C(N)Nc1cccc(C(=O)NCC(=O)NC(CC(=O)O)c2cccc(-c3ccccc3)c2)c1 (stereo not drawn) [Example 242, β-[[2-[[[3-[(aminoiminomethyl)amino]phenyl]carbonyl]amino]acetyl]amino][1,1′-biphenyl]-3-propanoic acid]
16 | 0.84 nM | 109 nM | Cc1ccc(C(CC(=O)O)NC(=O)CNC(=O)c2cccc(NC(=N)N)c2)s1 (stereo not drawn) [Example 253, β-[[2-[[[3-[(aminoiminomethyl)amino]phenyl]carbonyl]amino]acetyl]amino]-5-methylthiophene-2-propanoic acid, trifluoroacetate salt]
17 | 0.77 nM | 1810 nM | O=C(O)CC(NC(=O)CNC(=O)c1cccc(NC(=O)NCc2ccncc2)c1)c1cccnc1 (stereo not drawn) [Example 266, β-[[2-[[[3-[[[(4-pyridinylmethyl)amino]carbonyl]amino]phenyl]carbonyl]amino]acetyl]amino]pyridine-3-propanoic acid, (bis)trifluoroacetate salt]
18 | 0.71 nM | 25.9 nM | N=C(N)Nc1cccc(C(=O)NCC(=O)NC(CC(=O)O)c2ccc3c(c2)Cc2ccccc2-3)c1 (racemic) [Example 224, (±)β-[[2-[[[3-[(aminoiminomethyl)amino]phenyl]carbonyl]amino]acetyl]amino]-9H-fluorene-2-propanoic acid, trifluoroacetate salt]
